Reference: ChEMBL document CHEMBL4219183, “Novel purine benzimidazoles as antimicrobial agents by regulating ROS generation and targeting clinically resistant Staphylococcus aureus DNA groove” (Bioorg Med Chem Lett, 2018)
≈ marks a conversion by molar mass, not a printed value. Calls of active or inactive are those of the source. The rule behind the calls is not given here.

What was measured:
DNA [1] = assay: Binding affinity to Staphylococcus aureus genomic DNA assessed as hyperchromic shift at 2.5 to 20 x 10^-6mol/L by UV absorption spectral analysis; type: nucleic-acid assay
Staphylococcus aureus [2] = assay: Antibacterial activity against methicillin-resistant Staphylococcus aureus N315 after 24 hrs by two fold serial dilution method; type: functional; settings: N315, 24 h
Enterococcus faecalis = assay: Antibacterial activity against Enterococcus faecalis after 24 hrs by two fold serial dilution method; type: functional
Staphylococcus aureus [3] = assay: Antibacterial activity against Staphylococcus aureus after 24 hrs by two fold serial dilution method; type: functional
Staphylococcus aureus [4] = assay: Antibacterial activity against Staphylococcus aureus ATCC 25923 after 24 hrs by two fold serial dilution method; type: functional; settings: ATCC 25923, 24 h
Staphylococcus aureus [5] = assay: Antibacterial activity against Staphylococcus aureus ATCC 29213 after 24 hrs by two fold serial dilution method; type: functional; settings: ATCC 29213, 24 h
Klebsiella pneumoniae = assay: Antibacterial activity against Klebsiella pneumoniae after 24 hrs by two fold serial dilution method; type: functional
Escherichia coli [6] = assay: Antibacterial activity against Escherichia coli after 24 hrs by two fold serial dilution method; type: functional
Pseudomonas aeruginosa [7] = assay: Antibacterial activity against Pseudomonas aeruginosa after 24 hrs by two fold serial dilution method; type: functional
Acinetobacter baumannii = assay: Antibacterial activity against Acinetobacter baumannii after 24 hrs by two fold serial dilution method; type: functional
Pseudomonas aeruginosa [8] = assay: Antibacterial activity against Pseudomonas aeruginosa ATCC 27853 after 24 hrs by two fold serial dilution method; type: functional; settings: ATCC 27853, 24 h
Escherichia coli [9] = assay: Antibacterial activity against Escherichia coli ATCC 25922 after 24 hrs by two fold serial dilution method; type: functional; settings: ATCC 25922, 24 h
Candida albicans [10] = assay: Antifungal activity against Candida albicans after 24 hrs by two fold serial dilution method; type: functional
Candida tropicalis = assay: Antifungal activity against Candida tropicalis after 24 hrs by two fold serial dilution method; type: functional
Aspergillus fumigatus = assay: Antifungal activity against Aspergillus fumigatus after 24 hrs by two fold serial dilution method; type: functional
Candida albicans [11] = assay: Antifungal activity against Candida albicans ATCC 90023 after 24 hrs by two fold serial dilution method; type: functional; settings: ATCC 90023, 24 h
Candida parapsilosis = assay: Antifungal activity against Candida parapsilosis ATCC 22019 after 24 hrs by two fold serial dilution method; type: functional; settings: ATCC 22019, 24 h
Staphylococcus aureus [12] = assay: Potency index, ratio of norfloxacin MIC to compound MIC for Staphylococcus aureus; type: functional
[13] = Cytotoxicity against human A549 cells assessed as cell viability at <500 ug/ml after 48 hrs by MTT assay relative to control; type: cell-based; settings: read-out: Activity
HeLa = assay: Induction of ROS generation in human HeLa cells at 6.25 to 50 uM by DCFH-DA staining based fluorescence microscopic method; type: cell-based
DNA [14] = assay: Binding affinity to Staphylococcus aureus genomic DNA by UV absorption spectral analysis; type: nucleic-acid assay
DNA [15] = assay: Inhibition of neutral red binding to Staphylococcus aureus genomic DNA up to 20 x 10^-6mol/L by UV absorption spectral analysis; type: nucleic-acid assay
DNA [16] = assay: Binding affinity to Staphylococcus aureus genomic DNA at pH 7.4 at 294 K by fluorescence quenching analysis; type: nucleic-acid assay
DNA [17] = assay: Binding affinity to Staphylococcus aureus genomic DNA at pH 7.4 at 304 K by fluorescence quenching analysis; type: nucleic-acid assay
DNA [18] = assay: Binding affinity to Staphylococcus aureus genomic DNA at pH 7.4 at 314 K by fluorescence quenching analysis; type: nucleic-acid assay
DNA [19] = assay: Binding affinity to Staphylococcus aureus genomic DNA assessed as modified Stern-Volmer quenching constant at pH 7.4 at 294 K by fluorescence quenching analysis; type: nucleic-acid assay
DNA [20] = assay: Binding affinity to Staphylococcus aureus genomic DNA assessed as modified Stern-Volmer quenching constant at pH 7.4 at 304 K by fluorescence quenching analysis; type: nucleic-acid assay
DNA [21] = assay: Binding affinity to Staphylococcus aureus genomic DNA assessed as modified Stern-Volmer quenching constant at pH 7.4 at 314 K by fluorescence quenching analysis; type: nucleic-acid assay
DNA [22] = assay: Binding affinity to Staphylococcus aureus genomic DNA assessed as iodide quenching constant at pH 7.4 by fluorescence quenching analysis (reference value: 28.74 L/mol); type: nucleic-acid assay
DNA [23] = assay: Binding affinity to Staphylococcus aureus genomic DNA assessed as change in enthalpy at 304 K; type: nucleic-acid assay
DNA [24] = assay: Binding affinity to Staphylococcus aureus genomic DNA assessed as gibbs free energy change at 294 K; type: nucleic-acid assay
DNA [25] = assay: Binding affinity to Staphylococcus aureus genomic DNA assessed as gibbs free energy change at 304 K; type: nucleic-acid assay
DNA [26] = assay: Binding affinity to Staphylococcus aureus genomic DNA assessed as gibbs free energy change at 314 K; type: nucleic-acid assay
DNA [27] = assay: Binding affinity to Staphylococcus aureus genomic DNA assessed as change in entropy at 304 K; type: nucleic-acid assay

| SMILES | MIC (Staphylococcus aureus [2]) | MIC (Enterococcus faecalis) | MIC (Staphylococcus aureus [3]) | MIC (Staphylococcus aureus [4]) | MIC (Staphylococcus aureus [5]) | MIC (Klebsiella pneumoniae) | MIC (Escherichia coli [6]) | MIC (Pseudomonas aeruginosa [7]) | MIC (Acinetobacter baumannii) | MIC (Pseudomonas aeruginosa [8]) | MIC (Escherichia coli [9]) | MIC80 (Candida albicans [10]) | MIC80 (Candida tropicalis) | MIC80 (Aspergillus fumigatus) | MIC80 (Candida albicans [11]) | MIC80 (Candida parapsilosis) | also measured |
| --- | --- | --- | --- | --- | --- | --- | --- | --- | --- | --- | --- | --- | --- | --- | --- | --- | --- |
| CCCCCCn1c(Cn2cnc3c(N4CCOCC4)ncnc32)nc2ccccc21 | 16 µg/mL (≈ 38.1 µM) | 128 µg/mL (≈ 305 µM) | 4 µg/mL (≈ 9.53 µM) | 64 µg/mL (≈ 153 µM) | 512 µg/mL (≈ 1220 µM) | 64 µg/mL (≈ 153 µM) | 128 µg/mL (≈ 305 µM) | 64 µg/mL (≈ 153 µM) | 64 µg/mL (≈ 153 µM) | 16 µg/mL (≈ 38.1 µM) | 8 µg/mL (≈ 19.1 µM) | 32 µg/mL (≈ 76.3 µM) | 64 µg/mL (≈ 153 µM) | 128 µg/mL (≈ 305 µM) | 32 µg/mL (≈ 76.3 µM) | 128 µg/mL (≈ 305 µM) | Activity (DNA [1]): Active; Ratio (Staphylococcus aureus [12]): 16; viability at 48 h [13]: > 85%; Activity (HeLa): Non-Toxic; K (DNA [14]): 4.92 ×10⁵ L/mol; inhibition (DNA [15]): inactive; KSV (DNA [16]): 1.87 ×10⁴ L/mol; KSV (DNA [17]): 1.52 ×10⁴ L/mol; KSV (DNA [18]): 1.21 ×10⁴ L/mol; Ka (DNA [19]): 3.76 ×10⁴ L/mol; Ka (DNA [20]): 2.33 ×10⁴ L/mol; Ka (DNA [21]): 1.73 ×10⁴ L/mol; KSV (DNA [22]): 78.2 L/mol; deltaH (DNA [23]): -7.12 kcal/mol; deltaG (DNA [24]): -6.16 kcal/mol; deltaG (DNA [25]): -6.13 kcal/mol; deltaG (DNA [26]): -6.09 kcal/mol; deltaS (DNA [27]): -13.6 J/mol.K |
| CCCCCCCCCCn1c(Cn2cnc3c(N4CCOCC4)ncnc32)nc2ccccc21 | 256 µg/mL (≈ 538 µM) | 128 µg/mL (≈ 269 µM) | 256 µg/mL (≈ 538 µM) | 256 µg/mL (≈ 538 µM) | 256 µg/mL (≈ 538 µM) | 128 µg/mL (≈ 269 µM) | 32 µg/mL (≈ 67.3 µM) | 256 µg/mL (≈ 538 µM) | 256 µg/mL (≈ 538 µM) | 16 µg/mL (≈ 33.6 µM) | 128 µg/mL (≈ 269 µM) | 128 µg/mL (≈ 269 µM) | 256 µg/mL (≈ 538 µM) | 256 µg/mL (≈ 538 µM) | 64 µg/mL (≈ 135 µM) | 256 µg/mL (≈ 538 µM) | – |
| Cc1nc2ccccc2n1CCn1cnc2c(N3CCOCC3)ncnc21 | 512 µg/mL (≈ 1410 µM) | 256 µg/mL (≈ 704 µM) | 256 µg/mL (≈ 704 µM) | 32 µg/mL (≈ 88.1 µM) | 128 µg/mL (≈ 352 µM) | 256 µg/mL (≈ 704 µM) | 512 µg/mL (≈ 1410 µM) | 256 µg/mL (≈ 704 µM) | 256 µg/mL (≈ 704 µM) | 256 µg/mL (≈ 704 µM) | 256 µg/mL (≈ 704 µM) | 128 µg/mL (≈ 352 µM) | 256 µg/mL (≈ 704 µM) | 256 µg/mL (≈ 704 µM) | 128 µg/mL (≈ 352 µM) | 512 µg/mL (≈ 1410 µM) | – |
| Fc1ccc(Cn2c(Cn3cnc4c(N5CCOCC5)ncnc43)nc3ccccc32)cc1 | 256 µg/mL (≈ 577 µM) | 256 µg/mL (≈ 577 µM) | 512 µg/mL (≈ 1150 µM) | 64 µg/mL (≈ 144 µM) | 256 µg/mL (≈ 577 µM) | 128 µg/mL (≈ 289 µM) | 128 µg/mL (≈ 289 µM) | 256 µg/mL (≈ 577 µM) | 256 µg/mL (≈ 577 µM) | 64 µg/mL (≈ 144 µM) | 256 µg/mL (≈ 577 µM) | 256 µg/mL (≈ 577 µM) | 64 µg/mL (≈ 144 µM) | 256 µg/mL (≈ 577 µM) | 128 µg/mL (≈ 289 µM) | 256 µg/mL (≈ 577 µM) | – |
| CCCCCCCCn1c(Cn2cnc3c(N4CCOCC4)ncnc32)nc2ccccc21 | 512 µg/mL (≈ 1140 µM) | 256 µg/mL (≈ 572 µM) | 512 µg/mL (≈ 1140 µM) | 512 µg/mL (≈ 1140 µM) | 256 µg/mL (≈ 572 µM) | 256 µg/mL (≈ 572 µM) | 256 µg/mL (≈ 572 µM) | 256 µg/mL (≈ 572 µM) | 256 µg/mL (≈ 572 µM) | 128 µg/mL (≈ 286 µM) | 256 µg/mL (≈ 572 µM) | 256 µg/mL (≈ 572 µM) | 256 µg/mL (≈ 572 µM) | 512 µg/mL (≈ 1140 µM) | 64 µg/mL (≈ 143 µM) | 512 µg/mL (≈ 1140 µM) | – |
| c1nc2nc[nH]c(N3CCCC3)c-2n1 | 512 µg/mL (≈ 2710 µM) | 512 µg/mL (≈ 2710 µM) | 64 µg/mL (≈ 338 µM) | 512 µg/mL (≈ 2710 µM) | 512 µg/mL (≈ 2710 µM) | 512 µg/mL (≈ 2710 µM) | 256 µg/mL (≈ 1350 µM) | 256 µg/mL (≈ 1350 µM) | 256 µg/mL (≈ 1350 µM) | 128 µg/mL (≈ 676 µM) | 256 µg/mL (≈ 1350 µM) | 128 µg/mL (≈ 676 µM) | 128 µg/mL (≈ 676 µM) | 64 µg/mL (≈ 338 µM) | 256 µg/mL (≈ 1350 µM) | 512 µg/mL (≈ 2710 µM) | – |
| c1ccc(Cn2c(Cn3cnc4c(N5CCOCC5)ncnc43)nc3ccccc32)cc1 | 256 µg/mL (≈ 602 µM) | 128 µg/mL (≈ 301 µM) | 512 µg/mL (≈ 1200 µM) | 512 µg/mL (≈ 1200 µM) | 256 µg/mL (≈ 602 µM) | 128 µg/mL (≈ 301 µM) | 256 µg/mL (≈ 602 µM) | 256 µg/mL (≈ 602 µM) | 256 µg/mL (≈ 602 µM) | 128 µg/mL (≈ 301 µM) | 256 µg/mL (≈ 602 µM) | 256 µg/mL (≈ 602 µM) | 128 µg/mL (≈ 301 µM) | 512 µg/mL (≈ 1200 µM) | 256 µg/mL (≈ 602 µM) | 512 µg/mL (≈ 1200 µM) | – |
| CCCCCCn1c(Cn2cnc3c(N4CCCC4)ncnc32)nc2ccccc21 | 64 µg/mL (≈ 159 µM) | 256 µg/mL (≈ 634 µM) | 32 µg/mL (≈ 79.3 µM) | 64 µg/mL (≈ 159 µM) | 512 µg/mL (≈ 1270 µM) | 128 µg/mL (≈ 317 µM) | 256 µg/mL (≈ 634 µM) | 128 µg/mL (≈ 317 µM) | 64 µg/mL (≈ 159 µM) | 256 µg/mL (≈ 634 µM) | 16 µg/mL (≈ 39.6 µM) | 64 µg/mL (≈ 159 µM) | 128 µg/mL (≈ 317 µM) | 128 µg/mL (≈ 317 µM) | 32 µg/mL (≈ 79.3 µM) | 32 µg/mL (≈ 79.3 µM) | – |
